Laboratory results as given in PubChem BioAssay (NCI).
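The compound was tested at five concentrations on cells cultured in 96-well plates, with a 48-hour exposure period. TGI: total growth inhibition.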

Columns and labels:
Assay in all cases: growth of human tumour cells (NCI), 48 h
[1] = tested on: HCT-116 colon
[2] = tested on: SF-539 CNS
[3] = tested on: OVCAR-4 ovarian
[4] = tested on: OVCAR-8 ovarian
[5] = tested on: MOLT-4 leukemia
[6] = tested on: SF-268 CNS
[7] = tested on: 786-0 renal
[8] = tested on: UACC-62 melanoma
[9] = tested on: HCC-2998 colon
[10] = tested on: MALME-3M melanoma
[11] = tested on: U251 CNS
[12] = tested on: LOX IMVI melanoma
[13] = tested on: RPMI-8226 leukemia
[14] = tested on: RXF 393 renal
[15] = tested on: NCI-H23 lung
[16] = tested on: SNB-19 CNS
[17] = tested on: IGROV1 ovarian
[18] = tested on: KM20L2 colon
[19] = tested on: TK-10 renal
[20] = tested on: UACC-257 melanoma
[21] = tested on: HOP-92 NSCLC
[22] = tested on: EKVX NSCLC
[23] = tested on: HT29 colon
[24] = tested on: DMS 273 small cell lung
[25] = tested on: M14 melanoma
[26] = tested on: UO-31 renal
[27] = tested on: A498 renal
[28] = tested on: SK-OV-3 ovarian
[29] = tested on: HCT-15 colon
[30] = tested on: DLD-1 colon
[31] = tested on: NCI-H226 lung
[32] = tested on: SR leukemia
[33] = tested on: SF-295 CNS
[34] = tested on: COLO 205 colon
[35] = tested on: OVCAR-3 ovarian
[36] = tested on: SN12C renal
[37] = tested on: XF 498 CNS
[38] = tested on: SK-MEL-5 melanoma
[39] = tested on: KM12 colon
[40] = tested on: HL-60(TB) leukemia
[41] = tested on: SW-620 colon
[42] = tested on: HOP-62 NSCLC
[43] = tested on: A549 NSCLC
[44] = tested on: DMS 114 small cell lung
[45] = tested on: NCI-H460 lung
[46] = tested on: RXF-631 renal
[47] = tested on: K-562 leukemia
[48] = tested on: CAKI-1 renal
[49] = tested on: LXFL 529 NSCLC
[50] = tested on: M19-MEL melanoma
[51] = tested on: SNB-75 CNS
[52] = tested on: NCI-H522 lung
[53] = tested on: CCRF-CEM leukemia
[54] = tested on: SNB-78 CNS

Measured: TGI

Cc1ccc(S(=O)(=O)C(CC(NC=O)S(=O)(=O)c2ccc(C)cc2)NC=O)cc1 (centres undefined)
> 100 µM: all assays above
